Series [1] relates to A549 cells. The series is described as follows: Microarray of differentially expressed genes in A549 cells, +/- IL-1β, +/- Clarithromycin or FMA9045 (Appendix A). The note with it: for Total # Differential Genes (95% confidence): A549, min fold change threshold 1.3. The format is cell-based. An excerpt:
(§1) The data for each cell line (A549 and THP-1) are presented in Appendices A and B. For each cell line, the data for all of the hybridizations are represented together in the same table. For each hybridization, there are two columns: the weighted mean ratio (wtd mean ratio) and the minimum fold change (min fold change). The “min fold change” represents the minimum change in expression that meets the 95% confidence threshold. It can be estimated from the log ratio and standard deviation, assuming that the uncertainty in the ratio is normally distributed. […] See also Cheng Li and Wing Hung Wong, “Model-based analysis of oligonucleotide arrays: model validation, design issues and standard error application,” Genome Biology 2001 2(8):research0032.1-0032.11 (published 3 Aug. 2001).
(§2) The analysis method to generate these tables was similar for A549 and THP-1, cells. […] It is important to note that the fold change threshold is an absolute number, and the direction of change (increased or decreased expression) must be determined by the looking at the weighted mean ratio. The significance threshold criteria are included in parentheses in each “min fold change” column. The weighted mean ratios representing significant differentials (95% confidence, p value <0.05) are in bold. The “Spot IDs” correspond to publicly available cDNA sequences for the region of the gene represented at that spot on the microarray chip.
(§3) For the A549 and THP-1 cell lines (Appendix A and B, respectively), the first table for each cell line (“total differentials”) represents all of the genes that show differential expression in at least one of the hybridizations. The second table for A549 and THP-1 cells (“drug effects, sum ≧4.5” and “drug effects, sum ≧5”, respectively) has an additional final column, “sum of min fold change.” This column represents the sum of the minimum fold changes for all of the groups except the stimulus alone. This column was used to rank the genes in order of the greatest global drug effect, independent of whether the drug used was Clarithromycin or FMA9045 and independent of stimulus effect.
As noted above, a sum min fold change ≧4.5 was used as the threshold for ranking the most highly regulated drug effects. In both tables in Appendix A, the genes that meet this criterion (sum ≧4.5) are in bold, and those genes that are bold and italics are the most highly regulated genes and have a min fold change ≧5.0.

The test system of series [2] is THP-1 cells. The series is described as follows: Microarray of differentially expressed genes in THP-1 cells, +/- LPS, +/- Clarithromycin or FMA9045 (Appendix B, Appendix F). It counts as cell-based. The note with it: for Total # Differential Genes (95% confidence): THP-1, min fold change threshold 1.5 (Clari), 1.3 (FMA).
Text: as §1, §2, §3
For THP-1 cells, a sum min fold change ≧5.0 was used as the threshold for ranking the most highly regulated drug effects. In both tables in Appendix B, the genes that meet this criterion (sum ≧5) are in bold and in italics. A larger sum min fold change threshold was used for THP-1 cells, because the macrolide response in this cell line was more robust than that in A549 cells.
The influence of a macrolide compound on the level of expression of the gene of the material related to inflammatory disease of the lung is summarized in Appendix F. In Appendix F, ‘+/−Clari, wtd means’ denotes gene induction (suppression) when clarithromycin is added to THP-1 cells, and the larger the figure, the more the gene is expressed. Furthermore, ‘+LPS+/−Clari, wtd means’ denotes gene induction (suppression) when clarithromycin is added to LSP-stimulated THP-1 cells, and the smaller the figure, the more the gene expression is suppressed.

In series [3] the test system is A549 cells. Briefly: A549 microarray comparing macrolides with arachidonic acid pathway inhibitors, with IL-1β stimulation (Appendix C, Tables 6-9), and correlation analysis. The format is cell-based. The conditions noted are these: for Total # Differential Genes (95% confidence): A549, threshold 1.3; for FADS1 expression: A549 cells, microarray. The text has this:
One inhibitor, triacsin C, acts on AA biosynthesis by inhibiting arachidonyl CoA synthetases, blocking the incorporation of free AA into phospholipids. Triacsin C is reasonably specific for AA compared to other fatty acids. However, triacsin C structurally resembles AA so it also may interfere with other steps in the AA pathway. Indomethacin is an inhibitor of COX1 and COX2 enzyme activities and therefore specifically blocks metabolism of AA into prostaglandins. […] It inhibits transcription of PLA2, and transcriptionally and post-transcriptionally regulates COX1 and COX2 activities. Dexamethasone has additional effects unrelated to AA through binding with the glucocorticoid receptor to glucocortcoid response elements.
A549 cells were pre-incubated overnight (17 hours) with macrolides (10 μM FMA-9045, 50 μM clarithromycin, 50 μM roxithromycin, 50 μM josamycin) and 15 μM triacsin C, and pre-incubated 2 hours with 100 nM indomethacin and 100 nM dexamethasone. All cells then were stimulated for 4 hours with IL-1β, because the activation of PLA2 and downstream signaling events generally requires an inflammatory stimulus. The various treatment conditions are shown below in Table 4. Following macrolide and inhibitor pre-treatment and IL-1 stimulation, the cells were lysed, total RNA was collected, and the poly-A+ mRNA fraction was purified. The resulting microarray data (Appendix C) were analyzed using the methods described in the Examples above.
The tables in Appendix C represent the effects of the arachidonic acid pathway inhibitors (“AA pathway inhibitors”) and the effects of the macrolides (“IL1+macrolide effects”). […] In both tables in Appendix C, the genes that meet this criterion (≧1.3 min fold change) are indicated in bold.
Quantitative analysis was done to determine how well the responses to the different AA pathway inhibitors correlated. The correlation values were assigned a p-value to provide statistical confidence to the correlation value. Correlation between experiments, across all spots showing good detection, was assessed by cosine vector angle to generate the data shown in Tables 7-9. A correlation coefficient close to one indicates strong correlation, whereas a value near zero indicates no correlation. P-values for each correlation coefficient were estimated based on a Fisher permutation test. In this test, each spot's expression ratios were randomly re-ordered across experiments and the degree of correlation between experiments was then reassessed. This was done repeatedly.

Series [4] can be described thus: Plasma AUC of clarithromycin after single administration to mice. It counts as in vivo. The conditions noted are these: C57black/6, mouse, oral, 50 mg/kg singly administered, read-out: plasma AUC0-8. As for the experimental part:
(§4) Administration of clarithromycin was carried out orally at the rate of 25, 50 or 100 […] twice daily (morning and evening) during the tobacco smoke exposure period. The plasma AUC0-8 of clarithromycin obtained when 50 mg/kg was singly administered to the mice was 2.677 μg·hr/ml while the plasma AUC0-8 of clarithromycin obtained when 200 mg of clarithromycin was singly administered to a normal human subject was 8.98 μg·hr/ml. The former concentration was substantially lower than the latter one and was an adequate concentration to be used clinically.

The nature of series [5]: Plasma AUC of clarithromycin after single administration to a normal human subject. The format is in vivo. The conditions noted are these: 200 mg singly administered, read-out: plasma AUC0-8. The method, then: as §4
The mark [6] stands for this setting: A549 + IL-1β, of the genes regulated by the labelled drug.
Where [7] appears, read: IL1 + Triacsin vs IL1 + Triacsin + macrolide 50 μM.
[8] abbreviates: IL1 vs IL1 + drug, macrolides 50 μM (FMA 10 μM), triacsin C 15 μM, indomethacin and dexamethasone 100 nM.

SMILES strings stand for the structures.

For `CC[C@H]1OC(=O)[C@H](C)[C@@H](O[C@H]2C[C@@](C)(OC)[C@@H](O)[C@H](C)O2)[C@H](C)[C@@H](O[C@@H]2O[C@H](C)C[C@H](N(C)C)[C@H]2O)[C@](C)(OC)C[C@@H](C)C(=O)[C@H](C)[C@@H](O)[C@]1(C)O` [clarithromycin], the “Total # Differential Genes (95% confidence)” value came to 117 in series [1] (+/- drug alone); 127 in series [1] (IL-1 +/- drug); 127 in series [2] (+/- drug alone); 120 in series [2] (LPS +/- drug); 4 in series [3] (setting [7]); 54 in series [3] (setting [8]). Besides, the “IL1b +/− clari, wtd mean ratio” value is on record as 0.9 in series [1] (A549 cells with IL1b stimulation, microarray expression ratio, gene = SpotID/GeneSymbol); 0.9 in series [1] (A549 cells, IL1b stimulated, with vs without clari, gene/spot of the table line); 0.9 in series [1] (A549 cells, per microarray spot/gene, IL1b stimulated, with vs without clari). In addition, the “Clari treated, wtd mean ratio” value in series [1] (A549 cells, Clari treated, no IL1, expression ratio of the gene/spot of the table line) was found to be 0.9; in series [1] (A549 cells, microarray expression ratio, gene = SpotID/GeneSymbol) it was 0.9; in series [1] (A549 cells, per microarray spot/gene, Clari treated, no IL1) it was 0.9; in series [2] (THP-1 cells, no LPS, gene given in each table row) it was 0.9; in series [2] (THP-1 cells, microarray expression ratio, gene/spot = table row), 0.9. Further, the “expression of SERPINB3 gene” value in series [2] (Category 1, Appendix F) was “enhancing the expression”. The “LPS +/− clari, wtd mean ratio” value worked out at 0.9 in series [2] (THP-1 cells with LPS, gene given in each table row) and 0.9 in series [2] (THP-1 cells, LPS stimulated, with vs without clari, gene/spot = table row). Further, in series [2] (induced during inflammatory stimulation, Category 2), the “expression of proteinase genes (MMP12, MMP9, MMP19, cathepsin K, cathepsin C)” value is “suppresses the expression”. Also, in series [2] (induced during inflammatory stimulation, Category 3), the “expression of the chemokine gene” value was “suppresses expression”. Further, the “Number of differentially expressed genes also differential in response to indomethacin” value in series [3] (setting [6]) is 25. The “Number of differentially expressed genes also differential in response to triacsin C” value in series [3] (setting [6]) is listed as “Forty-two”. For the same molecule, the FADS1 expression entry in series [3] is recorded as “differentially expressed”. In addition, the AUC(0-t) was 2680 ng·h/mL in series [4] and 8980 ng·h/mL in series [5].

In the case of `CO[C@@H]1[C@@H](O[C@@H]2O[C@H](C)[C@@H](O[C@H]3C[C@@](C)(O)[C@@H](OC(=O)CC(C)C)[C@H](C)O3)[C@H](N(C)C)[C@H]2O)[C@@H](CC=O)C[C@@H](C)[C@@H](O)/C=C/C=C/C[C@@H](C)OC(=O)C[C@H]1OC(C)=O` [josamycin], the “Total # Differential Genes (95% confidence)” value in series [3] (setting [8]) amounted to 73.

Take `CC[C@H]1OC(=O)[C@H](C)[C@@H](O[C@H]2C[C@@](C)(OC)[C@@H](O)[C@H](C)O2)[C@H](C)[C@@H](O[C@@H]2O[C@H](C)C[C@H](N(C)C)[C@H]2O)[C@](C)(O)C[C@@H](C)/C(=N\OCOCCOC)[C@H](C)[C@@H](O)[C@]1(C)O` [roxithromycin]: the results for the “Total # Differential Genes (95% confidence)” value in series [3] (setting [7]) and in series [3] (setting [8]) were 7 and 65, respectively. The FADS1 expression entry in series [3] is on record as “differentially expressed”.

The values are drawn from patent publication US20070172957A1, “Methods of identifying anti-inflammatory macrolides” (TAISHO PHARMACEUTICAL CO., LTD., priority 2004, published 2007).
